Like-named read-outs stand apart in the source and are kept apart here.
What was measured:
[1] = tested on: pIRES2-EGFP (5308 pb) plasmid DNA; assay: Gel electrophoretic mobility of plasmid DNA; assay type: binding; conditions: metal-to-base pair ratios 0.5, 1, 2; 0.8% agarose gel
Procedure: Adducts with pIRES2-EGFP (5308 pb) plasmid DNA (Catalog #6029-1) were prepared by adding the required volume of a freshly prepared solution of metal complexes in MilliQ water. The concentration of pIRES2-EGFP in the reaction mixture was 117 ng/µL, and the complexes’ concentration was varied to give different metal-to-base pair stoichiometries (0.5, 1 and 2). The mobility of the metal complex-treated pIRES2-EGFP samples was analysed by gel electrophoresis on a 0.8% (w/v) agarose gel (Boehringer-Mannheim, Mannheim, Germany) at […] at 25 °C in Tris-acetate/EDTA buffer. The gel was stained for 30 min in […] (w/v) ethidium bromide and the bands were visualised with a UVP gel scanner.
In addition, the interaction of both complexes with DNA was also studied by their ability to modify the electrophoretic mobility of the pIRES2-EGFP (5308 pb) plasmid DNA and compared to cisplatin (Figure 7).

ct-DNA (calf thymus DNA) [2] = tested on: ct-DNA (calf thymus DNA); set-up: method as in PMID 20926136; conditions: cited from earlier work
Caco-2/PD7 cells [3] = assay: MTT cell proliferation assay, Caco-2/PD7; assay type: cell-based, human; conditions: MTT, 72 h; mean ± SE of at least three determinations
Procedure: (§1) Cell culture. Human colon cancer Caco-2 cells (PD7 and TC7 clones) were kindly provided by Dr. Edith Brot-Laroche (Université Pierre et Marie Curie-Paris 6, UMR S 872, Les Cordeliers, Lyon, France) and grown in Dulbecco’s Modified Eagles medium (DMEM) (Gibco Invitrogen, Paisley, UK) supplemented with 20% foetal bovine serum (FBS), 1% non-essential amino acids, 1% streptomycin (1000 μg/mL), 1% penicillin (1000 μg/mL), and 1% amphotericin (250 U/mL). Caco-2 cells were maintained at 37 °C in a humidified atmosphere at 5% CO2.
(§2) Cell proliferation assay. Cell proliferation was measured using the 3-(4,5-dimethyl-2-thiazoyl)-2,5-diphenyltetrazolium bromide (MTT) assay, as previously described. Caco-2/TC7 cells were seeded in a 96-well plate at a density of 4000 cells/well and grown for 24 h before being treated with each complex or DMSO (used as control). After 72 h of incubation with the complexes, 10 μL of MTT (5 mg/mL) were added and incubation was continued at 37 °C for 3 h. Inversion removed the medium and 100 μL of DMSO were added to each well. Absorbance at 560 nm, proportional to many living cells, was measured by spectrophotometry (SPECTROstar Nano, BMG LABTECH, Ortenberg, Germany) and converted into a percentage (%) of growth inhibition.
(§3) The antiproliferative effects of the mononuclear and heteropolinuclear complexes were tested on two different Caco-2 cancer cell lines (PD7 and […]). […] Caco-2 cells of both PD7 and TC7 clones were exposed to increasing concentrations of the assayed compounds through dose–response/cell viability analysis. The results in terms of the IC50 parameter (Table 4) were obtained by using the MTT protocol.

Caco-2/TC7 cells = assay: MTT cell proliferation assay, Caco-2/TC7; assay type: cell-based, human; conditions: 72 h, mean ± SE of at least three determinations
Procedure: as §1, §2, §3

A2780/S = tested on: A2780/S; set-up: method as in PMID 19937669; conditions: ovarian cancer cell line; cited from earlier work
ct-DNA (calf thymus DNA) [4] = assay: ct-DNA binding constant by UV-vis titration (Benesi-Hildebrand); conditions: complex 20 μM, ct-DNA 0-100 μM, Tris-HCl pH 7.2
Procedure: A ctDNA solution was prepared at 1 mg/mL in tris (tris(hydroxymethyl)aminomethane)/HCl (0.1 M, pH 7.2). Then, the purity of the ctDNA was checked, recording its spectra and calculating the absorption ratio between 260 and 280 nm. This experiment also provides the means to calculate the concentration of ctDNA using the Beer–Lambert formula, with the extinction coefficient of 6600 M^−1cm^−1. Every experiment was corrected with a baseline of the buffer and the corresponding concentration of dimethylsulfoxide. The addition of DNA solution was performed in both assay and reference cuvettes. Then, the binding constant was calculated using the modified Benesi–Hildebrand equation. Kb is the binding constant, εf, εa, and εb are the extinction coefficients for the free compound, the apparent coefficient (calculated as the ratio of the absorbance and the concentration of the compound in the experiment), and the compound–DNA complex, respectively. […]
The binding capabilities of [Cu{Au(Spy)(PTA)}2]PF6 (1) and [Au(Spy)(PTA)] were estimated towards […] by recording the electronic absorption spectra throughout their interaction. The absorbance measurements were performed by successive additions of a DNA stock solution (10, 20, 30, 40 up to 100 μL) which afforded the final concentration of ct-DNA (from 0 to 100 μM) while maintaining the concentration of the complexes (20 μM). […]

A2780/R = tested on: A2780/R; set-up: method as in PMID 19937669; conditions: cisplatin-resistant ovarian cancer cell line; cited from earlier work
[5] = tested on: differentiated Caco-2/PD7 cells; assay: Cell viability of differentiated (enterocyte-like) Caco-2/PD7 cells; assay type: cell-based, human
Procedure: For cell viability studies of differentiated (enterocyte-like) cells, Caco-2/PD7 cells were seeded on 96-well plates at a density of 4 × 10^3 cells/well and incubated for approximately 10–15 days, changing the culture medium every 3 days, up to reaching confluence—the moment in which the cells were treated with the complexes at concentrations equal to their mean IC50 and 2 × IC50 values.
It is well known that the Caco-2 cell line undergoes spontaneous differentiation into enterocytic-like cells when it reaches confluency. As a result, these cells become polarised, expressing apical and basolateral surfaces with established tight junctions. This allowed for the evaluation of the cytotoxic impact of the complexes on differentiated cells (acting as noncarcinogenic) and a comparison with the viability of undifferentiated cells. Thus, the toxicity of the two heteronuclear compounds has been studied by cell viability experiments by treatment of Caco-2/PD7 cells after differentiation with complexes 1 and 2 at the corresponding concentrations equivalent to IC50 and 2 × IC50 values for 72 h. The results expressed as the % of cell viability observed after treatment with the complexes (or 100% for non-treated control cells) are summarised in Figure S16 (Supplementary Materials). […] However, the cell viability is around 90% even when the cells are treated with double the IC50 concentration.

[6] = Distribution coefficient (logP7.4), n-octanol-water shake-flask; assay type: physicochemical; conditions: n-octanol / buffered saline pH 7.4, shake-flask
Procedure: Distribution coefficient (logP7.4). The n-octanol-water coefficients of the complexes were determined using a shake-flask method, as previously reported. Briefly, buffered-saline distilled water (100 mL, phosphate buffer [PO4^3−] = 10 mM, [NaCl] = 0.15 M, pH 7.4) and n-octanol (100 mL) were shaken together for 72 h to allow for saturation of both phases. Approximately 1 mg of the complexes was dissolved in 5 mL of the aqueous phase and 5 mL of the organic phase was added, mixing them for 10 min. The resulting emulsion was centrifuged to separate the phases. The concentration of the compounds in each phase was determined using UV-vis absorbance spectroscopy. The logP7.4 was defined as log{[compound(organic)]/[compound(aqueous)]}.

Caco-2/PD7 cells [7] = assay: Annexin V/propidium iodide apoptosis assay, Caco-2/PD7; assay type: cell-based, human; conditions: Caco-2/PD7, annexin V/PI
Procedure: Study of cell death. After the appropriate incubation, cells were collected and stained with annexin V-FTIC, according to the manufacturer’s instructions. A negative control was prepared, containing unreacted cells to define the basal level of apoptotic and necrotic or dead cells. After incubation, the cells were transferred to flow-cytometry tubes and washed twice with temperate phosphate-buffered saline (PBS), suspended in 100 μL annexin V binding buffer (10 mM Hepes/NaOH, pH 7.4, 140 mM NaCl, 2.5 mM CaCl2), then 5 μL of annexin V-FITC, and 5 μL of PI was added to each 100 μL of cell suspension. After incubation for 15 min at room temperature in the dark, 400 μL of 1× annexin binding buffer was added and analysed by flow cytometry within one hour. The signal intensity was measured using a FACSARIA BD and analysed using FASCDIVA BD.
This inhibition of apoptosis produces a fast growth and proliferation of cancerous cells. The population of early and late apoptotic cells increased to 35% after treatment with complex 1 in comparison with the vehicle-treated cells (12%). […] Additionally, the effect observed after treating the cells with a dosage equal to the IC50 concentration is time-dependent. […]

[8] = tested on: pIRES2-EGFP (5308 pb) plasmid DNA; set-up: method as in PMID 24732792, PMID 3707609; conditions: cited from earlier work

For N.N.[Cl][Pt][Cl] [cisplatin], which “Effect on electrophoretic mobility of plasmid DNA” value [1] is on record?
Its value is “greatly alters the electrophoretic mobility”.

For CC[n+]1c(-c2ccccc2)c2cc(N)ccc2c2ccc(N)cc21 [EB, ethidium bromide], which “DNA binding constant Kb” value (ct-DNA (calf thymus DNA) [2]) is on record?
Its value is 1.23(±0.07) × 10^5 M^−1.

With c1ccc([S][Au][P]23CN4CN(CN(C4)C2)C3)nc1 [[Au(Spy)(PTA)]] as the molecule, how does the IC50 (Caco-2/PD7 cells [3]) read?
The IC50 was 2.64 ± 0.25 µM.

What about the “Effect on electrophoretic mobility of plasmid DNA” value [1] of the same molecule?
The value was “does not affect the mobility”.

What about the IC50 (Caco-2/TC7 cells) of the same molecule?
The IC50 was 2.03 ± 0.02 µM.

What about the IC50 (A2780/S) of the same molecule?
The IC50 was 9.6 µM.

What about the “DNA binding constant Kb” value (ct-DNA (calf thymus DNA) [4]) of the same molecule?
The value was 90600 M⁻¹.

And the IC50 (A2780/R)?
Its IC50 is 8.2 µM.

What does the source list for [Zn{Au(PTA)(Spy)}2]Cl2 [compound 3]?
Cell viability of differentiated Caco-2 cells at 2 × IC50 ([5]; differentiated Caco-2/PD7, concentration = 2 × IC50, 72 h): 93.18 ± 11.99%; Cell viability of differentiated Caco-2 cells at IC50 ([5]; differentiated Caco-2/PD7, concentration = IC50, 72 h): 98.87 ± 21.63%

Which logP [6] does the source give for CC(=O)OC[C@H]1O[C@@H]([S-])[C@H](OC(C)=O)[C@@H](OC(C)=O)[C@@H]1OC(C)=O.CCP(CC)CC.[Au+] [Auranofin, reference compound] here?
The logP was −2.53.

And the “Cell death stage after treatment” value (Caco-2/PD7 cells [7])?
Its value is “most cells being found in late-stage apoptosis and necrosis”.

What about the IC50 (Caco-2/PD7 cells [3]) of the same molecule?
The IC50 was 1.8 ± 0.1 µM.

And the IC50 (Caco-2/TC7 cells)?
Its IC50 is 2.1 ± 0.4 µM.

What about the “Reactivity with DNA” value [8] of the same molecule?
The value was “lack of reactivity”.

Reference: paper PMC11351612, “Heteronuclear Complexes with Promising Anticancer Activity against Colon Cancer” (Biomedicines, 2024)
